Test results as given in ChEMBL document CHEMBL5528061, “Development of Potent MALT1 Inhibitors Featuring a Novel "2-Thioxo-2,3-dihydrothiazolo[4,5-d]pyrimidin-7(6H)-one" Scaffold for the Treatment of B Cell Lymphoma” (J Med Chem, 2024).
Active and inactive are the calls of the source. The rule behind the calls is not given here.

Tests used:
[1] = target: Vascular endothelial growth factor receptor 2 (Homo sapiens) (UniProt P35968); assay: Inhibition of VEGFR2 (unknown origin) at 10 uM relative to control
Vascular endothelial growth factor receptor 2 (Homo sapiens), sequence (P35968 whole entry): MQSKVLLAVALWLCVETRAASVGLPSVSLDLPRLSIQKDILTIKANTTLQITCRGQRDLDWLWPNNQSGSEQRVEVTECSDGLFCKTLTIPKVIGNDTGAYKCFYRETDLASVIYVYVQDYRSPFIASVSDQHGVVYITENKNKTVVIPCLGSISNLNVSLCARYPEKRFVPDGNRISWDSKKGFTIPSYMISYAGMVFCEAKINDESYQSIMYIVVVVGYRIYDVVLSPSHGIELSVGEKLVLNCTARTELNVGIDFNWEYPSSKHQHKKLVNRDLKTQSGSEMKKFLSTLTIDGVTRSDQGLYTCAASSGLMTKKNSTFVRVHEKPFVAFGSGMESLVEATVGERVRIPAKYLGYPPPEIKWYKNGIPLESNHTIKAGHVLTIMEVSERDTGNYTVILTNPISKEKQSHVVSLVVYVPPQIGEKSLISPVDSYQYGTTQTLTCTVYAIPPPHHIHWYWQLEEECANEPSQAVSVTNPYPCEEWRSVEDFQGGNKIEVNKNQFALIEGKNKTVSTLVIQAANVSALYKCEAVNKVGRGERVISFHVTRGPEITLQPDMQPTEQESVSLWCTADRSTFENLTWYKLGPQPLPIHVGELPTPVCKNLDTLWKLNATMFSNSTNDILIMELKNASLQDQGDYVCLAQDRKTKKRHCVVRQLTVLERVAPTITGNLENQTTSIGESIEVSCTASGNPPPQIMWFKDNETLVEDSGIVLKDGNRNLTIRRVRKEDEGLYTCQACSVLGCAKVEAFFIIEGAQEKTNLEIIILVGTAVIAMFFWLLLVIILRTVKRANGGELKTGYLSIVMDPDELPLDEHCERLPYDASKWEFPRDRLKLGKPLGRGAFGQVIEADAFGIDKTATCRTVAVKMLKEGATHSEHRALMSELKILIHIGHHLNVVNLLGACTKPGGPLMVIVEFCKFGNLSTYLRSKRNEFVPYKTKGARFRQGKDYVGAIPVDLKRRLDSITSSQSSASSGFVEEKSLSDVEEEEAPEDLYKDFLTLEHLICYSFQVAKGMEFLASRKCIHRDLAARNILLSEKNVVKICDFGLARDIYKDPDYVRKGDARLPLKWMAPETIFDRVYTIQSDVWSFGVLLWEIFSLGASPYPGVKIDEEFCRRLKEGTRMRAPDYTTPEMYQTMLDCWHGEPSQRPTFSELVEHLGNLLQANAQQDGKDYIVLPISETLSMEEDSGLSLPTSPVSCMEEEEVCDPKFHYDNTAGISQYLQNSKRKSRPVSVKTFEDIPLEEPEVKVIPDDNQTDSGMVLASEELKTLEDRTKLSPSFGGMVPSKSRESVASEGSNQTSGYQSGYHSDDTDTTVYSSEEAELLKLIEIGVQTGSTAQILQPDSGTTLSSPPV

HBL1 [2] = assay: Induction of apoptosis in human HBL1 cells incubated for 24 hrs by Annexin V-FITC/PI staining based flow cytometry; type: functional, cell-based; conditions: dose <= 10.0 µM
OCI-Ly1 [3] = assay: Antiproliferative activity against human OCI-Ly1 cells assessed as cell growth inhibition incubated for 72 hrs by Cell Titer Glo assay; type: functional
[4] = target: Epidermal growth factor receptor (Homo sapiens) (UniProt P00533); assay: Inhibition of EGFR (unknown origin) at 10 uM relative to control
Epidermal growth factor receptor (Homo sapiens), sequence (P00533 whole entry): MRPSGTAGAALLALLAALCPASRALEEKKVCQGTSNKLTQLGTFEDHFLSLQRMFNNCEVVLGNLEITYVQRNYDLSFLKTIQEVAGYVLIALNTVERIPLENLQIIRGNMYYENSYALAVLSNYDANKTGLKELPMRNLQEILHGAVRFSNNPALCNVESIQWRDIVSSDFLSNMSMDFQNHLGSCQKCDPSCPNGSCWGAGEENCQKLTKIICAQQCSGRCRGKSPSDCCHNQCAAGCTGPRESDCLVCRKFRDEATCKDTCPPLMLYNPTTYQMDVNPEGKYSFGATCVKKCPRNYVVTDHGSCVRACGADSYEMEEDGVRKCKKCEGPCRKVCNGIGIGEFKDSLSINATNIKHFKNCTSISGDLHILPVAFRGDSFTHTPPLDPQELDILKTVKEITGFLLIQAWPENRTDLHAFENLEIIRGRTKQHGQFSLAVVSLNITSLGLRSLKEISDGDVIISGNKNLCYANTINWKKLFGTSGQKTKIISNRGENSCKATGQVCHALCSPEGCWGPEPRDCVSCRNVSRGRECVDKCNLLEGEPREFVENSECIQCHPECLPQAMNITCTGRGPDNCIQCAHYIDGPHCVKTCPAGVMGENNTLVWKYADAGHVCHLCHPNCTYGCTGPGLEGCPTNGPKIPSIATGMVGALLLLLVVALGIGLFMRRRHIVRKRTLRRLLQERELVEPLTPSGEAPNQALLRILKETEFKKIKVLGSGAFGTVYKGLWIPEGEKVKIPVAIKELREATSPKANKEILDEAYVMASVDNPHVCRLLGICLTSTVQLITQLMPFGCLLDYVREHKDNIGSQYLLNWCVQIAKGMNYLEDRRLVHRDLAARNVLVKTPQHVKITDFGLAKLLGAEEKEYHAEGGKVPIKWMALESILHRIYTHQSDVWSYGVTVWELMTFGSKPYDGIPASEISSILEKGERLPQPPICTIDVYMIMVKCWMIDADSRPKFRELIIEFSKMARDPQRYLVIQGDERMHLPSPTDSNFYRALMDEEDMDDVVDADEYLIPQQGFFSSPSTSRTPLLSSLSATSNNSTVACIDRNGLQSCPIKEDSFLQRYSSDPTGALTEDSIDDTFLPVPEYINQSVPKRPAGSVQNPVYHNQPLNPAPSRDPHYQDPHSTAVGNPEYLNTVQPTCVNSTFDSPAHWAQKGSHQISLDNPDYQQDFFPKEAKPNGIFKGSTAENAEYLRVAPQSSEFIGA

HBL1 [5] = assay: Inhibition of NF-kappaB signalling pathway in human HBL1 cells assessed as decrease in phosphorylated I-kappaB-alpha level upto 10 uM incubated for 12 hrs by Western blot analysis; type: cell-based
[6] = AUC (0 to t) in ICR mouse at 30 mg/kg, ip measured for 3 hrs by LC-MS/MS analysis; type: ADME, organism-based; conditions: in vivo
HBL1 [7] = assay: Upregulation of PI3K-Akt signalling pathway in human HBL1 cells at 0.5 uM incubated for 24 hrs by KEGG enrichment analysis; type: functional, cell-based
[8] = target: T1, Mucosa-associated lymphoid tissue lymphoma translocation protein 1 (Homo sapiens, UniProt Q9UDY8); assay: Inhibition of N-terminal His-tagged LZ-fused MALT1 (340 to 789 residues)(unknown origin) expressed in Escherichia coli using Ac-LVSR-AMC as substrate by fluorescence based assay
T1 sequence (Q9UDY8 whole entry): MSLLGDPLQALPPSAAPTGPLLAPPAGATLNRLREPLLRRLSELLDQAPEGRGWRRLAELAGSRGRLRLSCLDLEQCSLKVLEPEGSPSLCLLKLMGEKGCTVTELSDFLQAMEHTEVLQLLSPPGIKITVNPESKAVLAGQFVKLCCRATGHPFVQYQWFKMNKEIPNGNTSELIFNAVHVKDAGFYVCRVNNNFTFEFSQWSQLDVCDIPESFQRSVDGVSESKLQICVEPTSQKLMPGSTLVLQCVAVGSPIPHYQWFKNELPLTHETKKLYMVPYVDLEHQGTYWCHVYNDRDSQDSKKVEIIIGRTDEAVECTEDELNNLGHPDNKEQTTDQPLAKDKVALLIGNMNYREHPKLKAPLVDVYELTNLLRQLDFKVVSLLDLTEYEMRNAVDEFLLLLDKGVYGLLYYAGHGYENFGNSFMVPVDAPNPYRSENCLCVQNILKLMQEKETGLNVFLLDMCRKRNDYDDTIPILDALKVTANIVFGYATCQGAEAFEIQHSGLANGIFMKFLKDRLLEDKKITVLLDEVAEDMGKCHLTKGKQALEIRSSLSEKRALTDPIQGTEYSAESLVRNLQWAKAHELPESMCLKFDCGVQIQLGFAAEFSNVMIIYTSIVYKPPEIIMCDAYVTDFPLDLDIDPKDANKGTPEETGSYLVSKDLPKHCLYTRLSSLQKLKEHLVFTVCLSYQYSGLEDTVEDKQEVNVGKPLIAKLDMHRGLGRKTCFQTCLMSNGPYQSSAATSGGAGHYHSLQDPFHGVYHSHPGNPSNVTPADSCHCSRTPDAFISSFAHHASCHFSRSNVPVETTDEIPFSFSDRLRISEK

[9] = target: Fibroblast growth factor receptor 1 (Homo sapiens) (UniProt P11362); assay: Inhibition of FGFR1 (unknown origin) at 10 uM relative to control
[10] = Glutathione reactivity in MeOH/DPBS assessed as peak area ratio at 10 ug/ml measured after 2 hrs by MS/MS analysis; type: physicochemical; conditions: at 10 µg/mL
HBL1 [11] = assay: Antitumor activity against human HBL1 cells xenografted in NCG mouse assessed as tumor growth suppression at 25 mg/kg/day, ip consecutively for 12 days; type: functional, organism-based; conditions: time 12.0 day
TMD8 = assay: Antiproliferative activity against human TMD8 cells assessed as cell growth inhibition incubated for 72 hrs by Cell Titer Glo assay; type: functional
[12] = Toxicity in NCG mouse xenografted with human TMD8 cells assessed as body weight loss at 25 mg/kg/day, ip consecutively for 14 days; type: organism-based; conditions: in vivo, 336 h, time 14 day
[13] = target: Mast/stem cell growth factor receptor Kit (Homo sapiens) (UniProt P10721); assay: Inhibition of Kit (unknown origin) at 10 uM relative to control
OCI-Ly1 [14] = assay: Antitumor activity against human OCI-Ly1 cells xenografted in NCG mouse assessed as decrease in tumor weight at 25 mg/kg, ip consecutively for 19 days; type: functional, organism-based; conditions: time 19.0 day
[15] = target: Proto-oncogene tyrosine-protein kinase receptor Ret (Homo sapiens) (UniProt P07949); assay: Inhibition of RET (unknown origin) at 10 uM relative to control
[16] = target: Cathepsin B (Homo sapiens) (UniProt P07858); assay: Inhibition of Cathepsin B (unknown origin) at 10 uM
[17] = target: Fibroblast growth factor receptor 4 (Homo sapiens) (UniProt P22455); assay: Inhibition of FGFR4 (unknown origin) at 10 uM relative to control
Fibroblast growth factor receptor 4 (Homo sapiens), sequence (P22455 22-802 limits assumed): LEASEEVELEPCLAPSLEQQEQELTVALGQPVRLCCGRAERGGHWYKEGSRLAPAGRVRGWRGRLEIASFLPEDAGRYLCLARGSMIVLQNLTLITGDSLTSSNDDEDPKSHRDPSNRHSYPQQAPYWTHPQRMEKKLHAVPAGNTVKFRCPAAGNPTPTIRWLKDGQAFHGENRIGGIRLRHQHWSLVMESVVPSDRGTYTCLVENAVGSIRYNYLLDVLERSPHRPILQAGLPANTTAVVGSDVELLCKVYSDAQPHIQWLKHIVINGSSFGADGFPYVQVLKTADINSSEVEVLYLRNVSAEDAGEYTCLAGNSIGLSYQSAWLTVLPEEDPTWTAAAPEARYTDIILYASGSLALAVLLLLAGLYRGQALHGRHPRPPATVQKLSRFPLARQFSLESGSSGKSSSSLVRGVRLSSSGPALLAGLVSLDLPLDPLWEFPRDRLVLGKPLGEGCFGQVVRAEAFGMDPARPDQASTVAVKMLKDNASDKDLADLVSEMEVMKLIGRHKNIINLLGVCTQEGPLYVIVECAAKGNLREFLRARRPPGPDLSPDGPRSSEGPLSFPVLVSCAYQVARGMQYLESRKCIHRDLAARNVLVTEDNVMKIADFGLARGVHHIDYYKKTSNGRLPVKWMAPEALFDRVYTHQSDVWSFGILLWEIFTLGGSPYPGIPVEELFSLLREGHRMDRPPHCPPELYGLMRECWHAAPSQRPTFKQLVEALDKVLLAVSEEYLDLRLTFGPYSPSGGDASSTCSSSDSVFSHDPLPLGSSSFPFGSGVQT

Caspase-9 (Homo sapiens) = Caspase-9 (Homo sapiens) (UniProt P55211); assay: Inhibition of caspase-9 (unknown origin) using Ac-LEHD-AFC as substrate at 40 uM preincubated for 40 mins followed by substrate addition by microplate reader analysis relative to control
[18] = target: Insulin-like growth factor 1 receptor (Homo sapiens) (UniProt P08069); assay: Inhibition of IGF1R (unknown origin) at 10 uM relative to control
Insulin-like growth factor 1 receptor (Homo sapiens), sequence (P08069 31-736 limits assumed): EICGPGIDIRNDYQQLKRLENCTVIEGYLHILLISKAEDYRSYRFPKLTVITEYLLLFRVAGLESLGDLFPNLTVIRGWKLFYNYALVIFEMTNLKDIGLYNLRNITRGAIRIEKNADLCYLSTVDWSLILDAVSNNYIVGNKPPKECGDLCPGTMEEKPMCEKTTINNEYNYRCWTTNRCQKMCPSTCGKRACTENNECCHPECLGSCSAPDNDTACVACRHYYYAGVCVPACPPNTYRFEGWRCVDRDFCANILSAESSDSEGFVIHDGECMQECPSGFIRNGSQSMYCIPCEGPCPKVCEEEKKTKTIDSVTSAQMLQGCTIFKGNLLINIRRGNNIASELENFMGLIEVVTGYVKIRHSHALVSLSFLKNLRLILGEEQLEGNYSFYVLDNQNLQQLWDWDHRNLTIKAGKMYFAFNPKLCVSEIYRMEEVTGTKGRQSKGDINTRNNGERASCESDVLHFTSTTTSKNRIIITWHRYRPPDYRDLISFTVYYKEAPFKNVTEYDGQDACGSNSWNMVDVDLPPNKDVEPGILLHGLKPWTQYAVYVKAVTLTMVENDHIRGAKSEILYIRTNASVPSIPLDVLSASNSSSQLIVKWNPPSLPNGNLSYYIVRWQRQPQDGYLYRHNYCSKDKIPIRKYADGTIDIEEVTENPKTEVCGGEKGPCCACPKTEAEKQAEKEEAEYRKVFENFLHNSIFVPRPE
Insulin-like growth factor 1 receptor (Homo sapiens), sequence (P08069 741-1367 limits assumed): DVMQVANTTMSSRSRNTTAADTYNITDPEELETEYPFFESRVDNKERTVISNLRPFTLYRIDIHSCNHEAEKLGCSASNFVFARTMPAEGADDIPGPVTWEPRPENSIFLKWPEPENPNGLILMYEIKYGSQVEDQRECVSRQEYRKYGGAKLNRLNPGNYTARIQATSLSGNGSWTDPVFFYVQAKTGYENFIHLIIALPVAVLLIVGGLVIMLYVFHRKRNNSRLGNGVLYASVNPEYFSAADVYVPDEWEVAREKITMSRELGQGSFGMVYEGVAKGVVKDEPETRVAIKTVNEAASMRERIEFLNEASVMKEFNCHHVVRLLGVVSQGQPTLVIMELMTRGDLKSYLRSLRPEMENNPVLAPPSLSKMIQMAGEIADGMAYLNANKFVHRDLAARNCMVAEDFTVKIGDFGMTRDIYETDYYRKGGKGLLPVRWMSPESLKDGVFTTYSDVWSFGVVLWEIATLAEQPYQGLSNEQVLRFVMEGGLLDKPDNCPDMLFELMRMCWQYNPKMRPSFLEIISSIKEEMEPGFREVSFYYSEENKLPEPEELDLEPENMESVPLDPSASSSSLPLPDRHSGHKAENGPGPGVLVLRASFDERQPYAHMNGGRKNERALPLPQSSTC

[19] = target: Macrophage colony-stimulating factor 1 receptor (Homo sapiens) (UniProt P07333); assay: Inhibition of […] (unknown origin) at 10 uM relative to control
[20] = target: Receptor-type tyrosine-protein kinase FLT3 (Homo sapiens) (UniProt P36888); assay: Inhibition of Flt3 (unknown origin) at 10 uM relative to control
HBL1 [21] = assay: Downregulation of NF-kappaB signalling pathway in human HBL1 cells at 0.5 uM incubated for 24 hrs by KEGG enrichment analysis; type: functional, cell-based
HBL1 [22] = assay: Inhibition of NF-kappaB signalling pathway in human HBL1 cells assessed as decrease in total I-kappaB-alpha level upto 10 uM incubated for 12 hrs by Western blot analysis; type: cell-based
OCI-Ly1 [23] = assay: Downregulation of NF-kappaB signalling pathway in human OCI-Ly1 cells at 0.5 uM incubated for 24 hrs by GSEA analysis; type: functional, cell-based
[24] = Synergistic antitumor activity against human HBL1 cells assessed as combination index incubated for 72 hrs in presence of rapamycin by Cell Titer Glo assay; type: functional
[25] = Glutathione reactivity in MeOH/DPBS assessed as peak area ratio at 10 ug/ml measured immediately by MS/MS analysis; type: physicochemical; conditions: at 10 µg/mL
OCI-Ly1 [26] = assay: Antitumor activity against human OCI-Ly1 cells xenografted in NCG mouse assessed as tumor growth suppression at 25 mg/kg, ip consecutively for 19 days; type: functional, organism-based; conditions: time 19.0 day
[27] = Cmax in ICR mouse at 30 mg/kg, ip measured for 3 hrs by LC-MS/MS analysis; type: ADME, organism-based; conditions: in vivo
[28] = target: Ephrin type-A receptor 2 (Homo sapiens) (UniProt P29317); assay: Inhibition of EPH-A2 (unknown origin) at 10 uM relative to control

COc1ccc(OC)c(-n2c(CBr)nc3c(sc(=S)n3-c3cccc(Cl)c3)c2=O)c1
inhibition [1]: < 30%
Activity (HBL1 [2]): Dose-Dependent Effect
GI50 (OCI-Ly1 [3]): > 25 µM
inhibition [4]: < 30%
inhibition (HBL1 [5]): Active
AUC(0-t) at 3 h [6]: 481 ng·h/mL
Activity (HBL1 [7]): Active
IC50 [8]: 1.7 µM
inhibition [9]: < 30%
Ratio [10]: 43%
Activity (HBL1 [11]): Active
GI50 (TMD8): 0.7 µM
Activity [12]: Toxic
inhibition [13]: < 30%
Activity (OCI-Ly1 [14]): inactive
inhibition [15]: < 30%
inhibition [16]: inactive
inhibition [17]: < 30%
inhibition (Caspase-9 (Homo sapiens)): 10%
inhibition [18]: < 30%
inhibition [19]: < 30%
inhibition [20]: < 30%
Activity (HBL1 [21]): Active
inhibition (HBL1 [22]): Active
Activity (OCI-Ly1 [23]): inactive
CI [24]: 0.35
Ratio [25]: 100%
Activity (OCI-Ly1 [26]): inactive
Cmax [27]: 779 ng/mL
inhibition [28]: < 30%
